In patent EP0155454A1, “Use of pirenzepine, its salts or medicaments containing pirenzepine for the treatment of colon disorders” (Dr. Karl Thomae GmbH, priority 1984, dated 1985):
Counter-ions that a name gives are not always drawn. Like-named read-outs stand apart in the source and are kept apart here.

Legend:
Colon irritabile = test: Double-blind cross-over clinical study versus placebo in patients with Colon irritabile; type: in vivo, Patienten; details: for symptomfrei oder gebessert: 2 x 25 mg/Tag, 2 weeks per period, 30 Patienten
From the text: Bei klinischen Untersuchungen an 30 Patienten mit dem angegebenen Beschwerdebild Colon irritabile, wobei sich trotz umfangreicher diagnostischer Maßnahmen bei keinem der Patienten ein pathologischer Befund ergab, wurde Pirenzepin-dihydrochloridmonohydrat zum Einsatz gebracht. Da es für einen möglichen Therapieerfolg bei der geschilderten Indikation keinen objektivierbaren Parameter gibt, wurde jeder Patient in Doppelblind-cross over-Technik entweder mit Pirenzepin oder mit Placebo behandelt. Die Dosierung betrug 2 x 25 mg/Tag. Der Versuchsplan ermöglichte also bei jedem Patienten einen zweimal 2-wöchigen Beobachtungszeitraum. Die geprüften Parameter waren Obstipation, Diarrhoe, Schafkotstuhl, wechselnde Stühle und Schleimabsonderung. Die Beurteilung der therapeutischen Wirkung erfolgte vor Beginn der Behandlung und nach jedem einzelnen Versuchsabschnitt. Jeder Patient erhielt einen weitgefächerten Score, um seine subjektiven Eindrücke festzuhalten. Diese Angaben wurden ausgewertet, wobei die generalisierten Befunde bezüglich der Einzelsymptomatik in der nachstehenden Tabelle aufgeführt sind: […]

Dickdarmmotorik [1] = test: Neostigmine-stimulated colon motility in healthy volunteers, acute intravenous pirenzepine; type: in vivo, freiwilligen Probanden
From the text: Pirenzepin löst einen krankhaften Spasmus im Darmtrakt ohne den Darm zu lähmen. Um dieses zu beweisen, bzw. um zu überprüfen, ob Pirenzepin anders als Atropin die gestörten motorischen Verhältnisse zu beeinflussen in der Lage ist und sich damit von Anticholinergika, Atropin oder Atropinderivaten unterscheidet, wurde die Dickdarmmotorik bei freiwilligen Probanden mit Neostigmin stimuliert und im Akutversuch Pirenzepin intravenös in therapeutischen Dosen verabreicht. In einer zweiten Serie wurden die Druck- und Motorikverhältnisse bei Patienten mit Colon irritabile vor und nach einer oralen Therapie mit Pirenzepin geprüft. Die dabei erzielten Ergebnisse lassen sich wie folgt zusammenfassen: Im Vergleich zur basalen Untersuchungsperiode konnte unter Neostigminstimulation an gesunden Testpersonen eine signifikante Zunahme der Druckamplitude um 21 %, der Kontraktionsdauer um 76 % und ein Anstieg des Motilitätsindex um 82 % beobachtet werden.

Darmmotilität = details: cited from earlier work
Dickdarmmotorik [2] = details: in vivo; cited from earlier work
[3] = intravenös, therapeutic doses, after Neostigmin stimulation

SMILES: CN1CCN(CC(=O)N2c3ccccc3C(=O)Nc3cccnc32)CC1 [Pirenzepin, 5,11-Dihydro-11-[(4-methyl-piperazin-1-yl)-acetyl)-6H-pyrido [2,3-b] [1,4] benzodiazepin-6-on]
- Unterschiede zwischen der Placebogruppe und der Verumgruppe (Colon irritabile; all tested parameters): signifikante bis hochsignifikante Unterschieden zugunsten von Pirenzepin
- Wirksamkeit in der Indikation Colon irritabile (Colon irritabile; overall assessment): sehr gut wirksam
- Abnahme der Druckamplitude (Dickdarmmotorik [1]; [3]): bis zum Ausgangsniveau
- Abnahme der Kontraktionsdauer (Dickdarmmotorik [1]; [3]): bis zum Ausgangsniveau
- Abnahme der propulsiven Kontraktionen (Dickdarmmotorik [1]; [3]): nicht zu registrieren
- Abnahme des Motilitätsindex (Dickdarmmotorik [1]; [3]): bis zum Ausgangsniveau
- Neostigmin-induzierte segmentale Kolonkontraktionen (Dickdarmmotorik [1]; summary statement): vermindert
- Verminderung der Darmmotilität (Darmmotilität; therapeutische Höchstdosen): nicht sichtbar

SMILES: CN(C)C(=O)Oc1cccc([N+](C)(C)C)c1 [Neostigmin]
- Anstieg des Motilitätsindex (Dickdarmmotorik [1]; in vivo): 82%
- Zunahme der Druckamplitude (Dickdarmmotorik [1]; in vivo): 21%
- Zunahme der Kontraktionsdauer (Dickdarmmotorik [1]; in vivo): 76%

SMILES: CN1CCN(CC(=O)N2c3ccccc3C(=O)Nc3cccnc32)CC1 [Gastrozepin, 5,11-Dihydro-11 [(4-methyl-piperazin-1-yl)acetyl]-6H-pyrido [2,3-b] [1,4] benzodiazpin-6-on-dihydrochloridmonohydrat]
- symptomfrei oder gebessert (Colon irritabile; Symptom Diarrhoe): 84%
- symptomfrei oder gebessert (Colon irritabile; Symptom Obstipation): 72%
- symptomfrei oder gebessert (Colon irritabile; Symptom Schafkotstuhl): 80%
- symptomfrei oder gebessert (Colon irritabile; Symptom Schleimabsonderung): 83%
- symptomfrei oder gebessert (Colon irritabile; Symptom Wechselnde Stühle): 89%

SMILES: CN1C2CCC1CC(OC(=O)C(CO)c1ccccc1)C2 (racemic) [Atropin]
- propulsive motorische Kontraktionen (Dickdarmmotorik [2]): zum Erliegen bringt
- Verminderung der Darmmotilität (Darmmotilität; in vivo): eine Verminderung der Darmmotilität bewirkt
